Results: patent US12037345B2, “Heterobicyclic compounds for inhibiting the activity of SHP2” (TAIHO PHARMACEUTICAL CO., LTD., priority 2018, dated 2024)
pIC50: −log10 of the molar value. Counter-ions that a name gives are not always drawn.

How the values were obtained:
[1] = molecular target: SHP2 (Homo sapiens (Human), UniProt Q06124); assay: SHP2 Biochemical Assay (DiFMUP conversion, pIRS1-activated)
Procedure: SHP2 activity was monitored by measuring the conversion of the surrogate substrate 6,8-difluoromethylumbelliferyl phosphate (DiFMUP) to the fluorescent product, 6,8-difluoromethylumbelliferone (DiFMU).
SHP2 was pre-incubated with test compounds and the activating peptide pIRS1 (H2N-LN(pY)IDLDLV-(PEG)8-LST(pY)ASINFQK-amide) for 30 min, prior to addition of the 6,8-difluoromethylumbelliferyl phosphate (DiFMUP), (Thermo Fisher D6567). Final assay concentrations were 10 pM SHP2, […] pIRS1 peptide, 50 μM DiFMUP, 25 mM Bis-Tris propane, pH 7.0, 150 mM NaCl, 0.05% (v/v) Tween-20, 0.5 mM TCEP and 5% (v/v) DMSO. Rates of reaction were then measured over 30 min by monitoring fluorescence on a BMG Pherastar reader at excitation 360 nm/emission 450 nm. IC50 values were calculated in singlicate from the normalized dose-response plots using four parameter logistic curve fit. The Experiment for each compound was carried out in one time or multiple times, and the IC50 values were shown as a single value (for a compound measured in a single experiment) or an average value (for a compound measured in multiple experiments).

[2] = test system: pERK (phospho-p44/42 ERK) in HCC827 cells; assay: Cellular pERK Inhibition Assay, Method A (In-Cell Western); assay type: cell-based; conditions: Homo sapiens, Table 19, head prints unit as "-M", read-out: pERK (IC50) Method A
Procedure: Cellular pERK Inhibition Assay
pERK levels were determined using the In-Cell Western assay. HCC827 cells (ATCC, Manassas, USA) were seeded into 384-well plates at a density of 1×10^4 cells/well in RPMI1640 medium supplemented with 10% FBS and incubated 24h. Compounds were diluted first in DMSO and then into serum-free medium, before being added to cells in quadruplicate to give a final concentration of 0.2% DMSO. Plates were incubated at 37° C. for the indicated time in a humidified atmosphere of 5% CO2 in air.
Following compound treatment, cells were fixed with formalin neutral buffer solution for 20 minutes at room temperature. Plates were washed three times with 0.1% Triton-X in PBS and cells were blocked for 1 hour with Odyssey blocking buffer (LI-COR, #927-40000). After shaking out blocking buffer, cells were incubated with phospho-p44/42 ERK antibody (Cell Signalling Technology, #4370, 1:200) diluted in Odyssey blocking buffer at 4° C. overnight. Plates were washed again and cells were incubated for 1 hour with Goat anti-Rabbit […] (LI-COR, #926-32211, 1:800) diluted in Odyssey blocking buffer. After washing and removing wash solution completely using a centrifuge machine, cells were scanned on the Odyssey (LI-COR), following the manufacturer's instructions. The average signal from blank wells (no cells added) was subtracted from the signals from each sample well. Levels of pERK were then expressed as percent of control, using DMSO treated samples as control. The relative IC50 values were calculated in quadruplicate from the normalized dose-response plots using four parameter logistic curve fit. The Experiment for each compound was carried out in one time or multiple times, and the IC50 values were shown as a single value (for a compound measured in a single experiment) or an average value (for a compound measured in multiple experiments).

[3] = Table 19, head prints unit as "-M"

| SMILES | pIC50 [1, 3] | pIC50 ([1]; Table 20) | other results |
| --- | --- | --- | --- |
| CCn1cc2c(Cl)c(-c3c[nH]c4nc(N5CCC6(CNC6)C5)n(C)c(=O)c34)ccc2n1 (racemic) [Example 196, rac-5-(4-chloro-2-ethyl-2H-indazol-5-yl)-2-{2,6-diazaspiro[3.4]octan-6-yl}-3-methyl-3H,4H,7H-pyrrolo[2,3-d]pyrimidin-4-one] |  | 7.49 |  |
| CCn1cc2c(Cl)c(-c3c[nH]c4nc(N5CC6CNCC5C6)n(C)c(=O)c34)ccc2n1 (single isomer, unassigned) [Example 193, 5-(4-chloro-2-ethyl-2H-indazol-5-yl)-2-{3,6-diazabicyclo[3.2.1]octan-6-yl}-3-methyl-3H,4H,7H-pyrrolo[2,3-d]pyrimidin-4-one hydrochloride] |  | 6.59 |  |
| CCn1cc2c(Cl)c(-c3c[nH]c4nc(N5C[C@@H]6CC[C@H]5[C@H]6N)n(C)c(=O)c34)ccc2n1 (stereo in doubt) [Example 133, rac-2-((1S,4S,7S)-7-amino-2-azabicyclo[2.2.1]heptan-2-yl)-5-(4-chloro-2-ethyl-2H-indazol-5-yl)-3-methyl-3,7-dihydro-4H-pyrrolo[2,3-d]pyrimidin-4-one] |  |  | pIC50 [2]: 7.34 |
| CCn1cc2c(Cl)c(-c3c[nH]c4nc(N5[C@H]6CC[C@@H]5[C@H](N)C6)n(C)c(=O)c34)ccc2n1 [Example 92, 2-((1R,2R,4S)-2-amino-7-azabicyclo[2.2.1]heptan-7-yl)-5-(4-chloro-2-ethyl-2H-indazol-5-yl)-3-methyl-3,7-dihydro-4H-pyrrolo[2,3-d]pyrimidin-4-one] |  |  | pIC50 [2]: 7.49 |
| Cn1nc2ccc(-c3c[nH]c4nc(N5[C@H]6CC[C@@H]5[C@H](N)C6)n(C)c(=O)c34)c(Cl)c2c1Cl [Example 93, 2-((1R,2R,4S)-2-amino-7-azabicyclo[2.2.1]heptan-7-yl)-5-(3,4-dichloro-2-methyl-2H-indazol-5-yl)-3-methyl-3,7-dihydro-4H-pyrrolo[2,3-d]pyrimidin-4-one] |  |  | pIC50 [2]: 7.68 |
| Cn1nc2ccc(-c3c[nH]c4nc(N5[C@H]6CC[C@@H]5[C@H](N)C6)n(C)c(=O)c34)c(F)c2c1Cl [Example 96, 2-((1R,2R,4S)-2-amino-7-azabicyclo[2.2.1]heptan-7-yl)-5-(3-chloro-4-fluoro-2-methyl-2H-indazol-5-yl)-3-methyl-3,7-dihydro-4H-pyrrolo[2,3-d]pyrimidin-4-one] |  |  | pIC50 [2]: 7.52 |
| Cn1c(N2[C@H]3CC[C@@H]2[C@H](N)C3)nc2[nH]cc(-c3ccc4ncsc4c3Cl)c2c1=O [Example 101, 2-((1R,2R,4S)-2-amino-7-azabicyclo[2.2.1]heptan-7-yl)-5-(7-chlorobenzo[d]thiazol-6-yl)-3-methyl-3,7-dihydro-4H-pyrrolo[2,3-d]pyrimidin-4-one] |  |  | pIC50 [2]: 7.34 |
| Cn1cc2c(Cl)c(-c3n[nH]c4nc(N5CC6COCC(C5)N6)n(C)c(=O)c34)ccc2n1 [Example 145, 3-(4-chloro-2-methyl-2H-indazol-5-yl)-5-methyl-6-{3-oxa-7,9-diazabicyclo[3.3.1]nonan-7-yl}-1H,4H,5H-pyrazolo[3,4-d]pyrimidin-4-one] | 6.82 |  |  |
| Cn1nc2ccc(-c3c[nH]c4nc(N5[C@H]6CC[C@@H]5[C@@H](N)C6)n(C)c(=O)c34)c(Cl)c2c1Cl [Example 166, 2-((1R,2S,4S)-2-amino-7-azabicyclo[2.2.1]heptan-7-yl)-5-(3,4-dichloro-2-methyl-2H-indazol-5-yl)-3-methyl-3,7-dihydro-4H-pyrrolo[2,3-d]pyrimidin-4-one] |  | 7.28 |  |
| Cn1nc2ccc(-c3c[nH]c4nc(N5[C@H]6CC[C@@H]5[C@H](N)C6)n(C)c(=O)c34)cc2c1Cl [Example 167, 2-((1R,2R,4S)-2-amino-7-azabicyclo[2.2.1]heptan-7-yl)-5-(3-chloro-2-methyl-2H-indazol-5-yl)-3-methyl-3,7-dihydro-4H-pyrrolo[2,3-d]pyrimidin-4-one] |  | 7.89 |  |
| Cn1nc2c(Cl)cc(-c3c[nH]c4nc(N5[C@H]6CC[C@@H]5[C@@H](N)C6)n(C)c(=O)c34)c(Cl)c2c1Cl [Example 168, 2-((1R,2S,4S)-2-amino-7-azabicyclo[2.2.1]heptan-7-yl)-3-methyl-5-(3,4,7-trichloro-2-methyl-2H-indazol-5-yl)-3,7-dihydro-4H-pyrrolo[2,3-d]pyrimidin-4-one] |  | 8.15 |  |
| CCn1cc2ccc(-c3c[nH]c4nc(N5CCC6(CC5)COC[C@H]6N)n(C)c(=O)c34)cc2n1 [Example 183, 2-[(4S)-4-amino-2-oxa-8-azaspiro[4.5]decan-8-yl]-5-(2-ethyl-2H-indazol-6-yl)-3-methyl-3H,4H,7H-pyrrolo[2,3-d]pyrimidin-4-one hydrochloride] |  | 6.85 |  |
| Cn1cc2c(Cl)c(-c3c[nH]c4nc(N5[C@@H]6CC[C@H]5C[C@](N)(C(F)F)C6)n(C)c(=O)c34)ccc2n1 [Example 185, 2-[(endo)-3-amino-3-(difluoromethyl)-8-azabicyclo[3.2.1]octan-8-yl]-5-(4-chloro-2-methyl-2H-indazol-5-yl)-3-methyl-3H,4H,7H-pyrrolo[2,3-d]pyrimidin-4-one hydrochloride] |  | 6.74 |  |
| CCn1cc2cc(-c3c[nH]c4nc(N5CCC6(CC5)COC[C@H]6N)n(C)c(=O)c34)cc(F)c2n1 [Example 186, 2-[(4S)-4-amino-2-oxa-8-azaspiro[4.5]decan-8-yl]-5-(2-ethyl-7-fluoro-2H-indazol-5-yl)-3-methyl-3H,4H,7H-pyrrolo[2,3-d]pyrimidin-4-one hydrochloride] |  | 7.44 |  |

Continued, in another order:

| pIC50 [1, 3] | SMILES | pIC50 ([1]; Table 20) | other results |
| --- | --- | --- | --- |
| 8.40 | CCn1cc2c(Cl)c(-c3c[nH]c4nc(N5C[C@H]6CC[C@@H]5[C@@H]6N)n(C)c(=O)c34)ccc2n1 (stereo in doubt) [Example 155, rel-2-((1R,4R,7R)-7-amino-2-azabicyclo[2.2.1]heptan-2-yl)-5-(4-chloro-2-ethyl-2H-indazol-5-yl)-3-methyl-3,7-dihydro-4H-pyrrolo[2,3-d]pyrimidin-4-one] |  |  |
| 6.64 | C[C@@H]1CN(c2nc3[nH]cc(-c4ccc5nn(C)cc5c4Cl)c3c(=O)n2C)CCN1 [Example 18, (R)-5-(4-chloro-2-methyl-2H-indazol-5-yl)-3-methyl-2-(3-methylpiperazin-1-yl)-3,7-dihydro-4H-pyrrolo[2,3-d]pyrimidin-4-one] |  |  |
| 6.46 | Cn1cc2c(Cl)c(-c3c[nH]c4nc(N5CCN[C@H](CO)C5)n(C)c(=O)c34)ccc2n1 [Example 19, (S)-5-(4-chloro-2-methyl-2H-indazol-5-yl)-2-(3-(hydroxymethyl)piperazin-1-yl)-3-methyl-3,7-dihydro-4H-pyrrolo[2,3-d]pyrimidin-4-one] |  |  |
| 6.12 | Cn1cc2c(Cl)c(-c3c[nH]c4nc(N5CCN[C@H](CCO)C5)n(C)c(=O)c34)ccc2n1 [Example 20, (R)-5-(4-chloro-2-methyl-2H-indazol-5-yl)-2-(3-(2-hydroxyethyl)piperazin-1-yl)-3-methyl-3,7-dihydro-4H-pyrrolo[2,3-d]pyrimidin-4-one] |  |  |
| 7.11 | Cn1cc2c(Cl)c(-c3c[nH]c4nc(N5CCC6(CCN6)CC5)n(C)c(=O)c34)ccc2n1 [Example 42, 5-(4-chloro-2-methyl-2H-indazol-5-yl)-3-methyl-2-(1,7-diazaspiro[3.5]nonan-7-yl)-3,7-dihydro-4H-pyrrolo[2,3-d]pyrimidin-4-one] |  |  |
| 6.54 | Cn1cc2c(Cl)c(-c3n[nH]c4nc(N5[C@@H]6CC[C@H]5[C@H](F)[C@@H](N)C6)n(C)c(=O)c34)ccc2n1 [Example 149, 6-[(1S,2R,3S,5R)-3-Amino-2-fluoro-8-azabicyclo[3.2.1]octan-8-yl]-3-(4-chloro-2-methyl-2H-indazol-5-yl)-5-methyl-1H,4H,5H-pyrazolo[3,4-d]pyrimidin-4-one] |  |  |
